Measured values taken from ChEMBL document CHEMBL4052659, “Synthesis, molecular docking, and biological activity of polyfluoroalkyl dihydroazolo[5,1-c][1,2,4]triazines as selective carboxylesterase inhibitors” (Bioorg Med Chem, 2017).
Activity calls are given as the source filed them. No cut-off for these calls is given here.

Tests used:
[1] = biological target: Cholinesterase (Equus caballus) (UniProt P81908); assay: Inhibition of equine serum butyrylcholinesterase at 20 uM using butyrylthiocholine iodide as substrate preincubated for 10 mins followed by substrate addition by Ellman's method relative to control
Chain of Cholinesterase (Equus caballus) (P81908 whole entry): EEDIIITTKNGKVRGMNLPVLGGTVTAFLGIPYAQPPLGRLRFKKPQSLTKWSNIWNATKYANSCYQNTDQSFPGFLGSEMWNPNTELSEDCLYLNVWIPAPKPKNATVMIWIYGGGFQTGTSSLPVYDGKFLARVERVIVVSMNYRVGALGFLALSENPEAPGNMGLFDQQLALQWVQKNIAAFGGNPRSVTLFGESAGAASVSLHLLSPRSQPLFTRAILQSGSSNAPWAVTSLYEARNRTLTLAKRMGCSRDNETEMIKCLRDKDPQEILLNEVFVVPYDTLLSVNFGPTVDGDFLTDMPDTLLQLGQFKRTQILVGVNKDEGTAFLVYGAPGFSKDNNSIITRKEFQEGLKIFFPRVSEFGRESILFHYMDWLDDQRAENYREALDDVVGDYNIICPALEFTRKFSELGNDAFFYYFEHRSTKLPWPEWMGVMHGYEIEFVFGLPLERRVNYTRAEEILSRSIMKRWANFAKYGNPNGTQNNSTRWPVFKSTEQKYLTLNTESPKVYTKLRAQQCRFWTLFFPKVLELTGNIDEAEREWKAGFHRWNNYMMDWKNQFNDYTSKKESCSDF

[2] = biological target: T1, Liver carboxylesterase (Sus scrofa, UniProt Q29550)
T1 sequence (Q29550 whole entry): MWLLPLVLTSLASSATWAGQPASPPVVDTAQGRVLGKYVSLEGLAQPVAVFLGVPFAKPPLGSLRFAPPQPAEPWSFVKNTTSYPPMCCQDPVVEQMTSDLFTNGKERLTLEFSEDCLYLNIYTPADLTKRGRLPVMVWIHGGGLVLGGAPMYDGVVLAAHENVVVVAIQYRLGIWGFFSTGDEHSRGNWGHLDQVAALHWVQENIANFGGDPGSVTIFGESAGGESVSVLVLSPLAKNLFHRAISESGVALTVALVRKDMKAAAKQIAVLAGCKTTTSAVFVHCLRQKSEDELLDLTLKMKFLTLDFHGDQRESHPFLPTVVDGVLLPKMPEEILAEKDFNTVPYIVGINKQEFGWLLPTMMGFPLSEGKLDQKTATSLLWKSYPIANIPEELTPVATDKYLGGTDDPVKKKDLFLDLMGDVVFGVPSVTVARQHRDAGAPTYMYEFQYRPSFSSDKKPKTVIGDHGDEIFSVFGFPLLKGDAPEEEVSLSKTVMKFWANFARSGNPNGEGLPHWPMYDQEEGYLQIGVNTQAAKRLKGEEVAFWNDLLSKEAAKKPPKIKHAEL
Description: Inhibition of porcine liver carboxylesterase using 4-nitrophenol acetate as substrate preincubated for 10 mins followed by substrate addition by spectrophotometric analysis

[3] = biological target: Acetylcholinesterase (Homo sapiens) (UniProt P22303); assay: Inhibition of human erythrocyte acetylcholinesterase at 20 uM using acetylthiocholine iodide as substrate preincubated for 10 mins followed by substrate addition by Ellman's method relative to control
Chain of Acetylcholinesterase (Homo sapiens) (P22303 whole entry): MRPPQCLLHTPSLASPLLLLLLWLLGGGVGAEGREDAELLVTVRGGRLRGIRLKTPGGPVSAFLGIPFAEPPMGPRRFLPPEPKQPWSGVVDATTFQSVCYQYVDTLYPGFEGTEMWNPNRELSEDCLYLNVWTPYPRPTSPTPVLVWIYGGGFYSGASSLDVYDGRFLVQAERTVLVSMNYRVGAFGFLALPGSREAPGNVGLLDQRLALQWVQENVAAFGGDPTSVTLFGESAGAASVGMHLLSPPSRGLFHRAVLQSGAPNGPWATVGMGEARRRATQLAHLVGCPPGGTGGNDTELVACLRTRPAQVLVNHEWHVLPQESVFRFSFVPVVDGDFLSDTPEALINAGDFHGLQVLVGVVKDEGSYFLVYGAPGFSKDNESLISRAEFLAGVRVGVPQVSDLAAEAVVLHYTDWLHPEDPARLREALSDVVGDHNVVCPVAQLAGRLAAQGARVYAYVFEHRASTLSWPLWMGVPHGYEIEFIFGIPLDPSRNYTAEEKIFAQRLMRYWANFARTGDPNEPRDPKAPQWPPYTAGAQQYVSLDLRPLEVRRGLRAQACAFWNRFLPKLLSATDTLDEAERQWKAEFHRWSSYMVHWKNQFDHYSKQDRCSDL

[4] = biological target: T1, Liver carboxylesterase; assay: Competitive inhibition of porcine liver carboxylesterase using varying levels of 4-nitrophenol acetate as substrate preincubated for 10 mins followed by substrate addition by Lineweaver-Burk plot analysis
[5] = biological target: T1, Liver carboxylesterase; assay: Non-competitive inhibition of porcine liver carboxylesterase using varying levels of 4-nitrophenol acetate as substrate preincubated for 10 mins followed by substrate addition by Lineweaver-Burk plot analysis; conditions: pig
[6] = Acute toxicity in CD-1 mouse assessed as mouse survival up to 300 mg/kg, ip measured for 14 days; format: organism-based; conditions: in vivo
[7] = biological target: T1, Liver carboxylesterase; assay: in vitro; conditions: pig, porcine liver carboxylesterase, probe 4-nitrophenol acetate
Description: Inhibition of porcine liver carboxylesterase at 20 uM using 4-nitrophenol acetate as substrate preincubated for 10 mins followed by substrate addition by spectrophotometric analysis relative to control

[8] = biological target: T1, Liver carboxylesterase; assay: Reversible mixed-type inhibition of porcine liver carboxylesterase at 0.1 to 0.6 uM using varying levels of 4-nitrophenol acetate as substrate preincubated for 10 mins followed by substrate addition by Lineweaver-Burk double-reciprocal plot analysis; conditions: pig
[9] = biological target: T1, Liver carboxylesterase; assay: Reversible mixed-type inhibition of porcine liver carboxylesterase at 5 to 20 uM using varying levels of 4-nitrophenol acetate as substrate preincubated for 10 mins followed by substrate addition by Lineweaver-Burk double-reciprocal plot analysis; conditions: pig
[10] = biological target: T1, Liver carboxylesterase; assay: Reversible mixed-type inhibition of porcine liver carboxylesterase at 0.5 to 2 uM using varying levels of 4-nitrophenol acetate as substrate preincubated for 10 mins followed by substrate addition by Lineweaver-Burk double-reciprocal plot analysis; conditions: pig

SMILES	inhibition [1]	IC50 [2] [µM]	inhibition [3]	Ki [4] [µM]	alphaKi [5] [µM]	survival at 336 h [6] [%]	inhibition at 20 µM [7] [%]	inhibition (INH) [8]	inhibition (INH) [9]	inhibition (INH) [10]
COC(=O)C1=NNc2nnnn2C1(O)C(F)(F)C(F)F (stereo not drawn)	inactive	12.3	inactive	–	–	–	–	–	–	–
COC(=O)C1=NNc2nnnn2C1(O)C(F)(F)C(F)(F)C(F)(F)F (stereo not drawn)	inactive	3.29	inactive	–	–	–	–	–	–	–
O=C(C1=NNc2ncnn2C1(O)C(F)(F)C(F)(F)C(F)(F)F)c1ccccc1 (stereo not drawn)	inactive	53.4	inactive	–	–	–	–	–	–	–
CCOC(=O)C1=NNc2ncnn2C1(O)C(F)(F)F (stereo not drawn)	inactive	3.6	inactive	–	–	–	–	–	–	–
CCOC(=O)C1=NNc2ncnn2C1(O)C(F)(F)C(F)(F)C(F)(F)C(F)(F)F (stereo not drawn)	3.7%	0.98	inactive	–	–	–	–	–	–	–
COC(=O)C1=NNc2cc(-c3ccccc3)nn2C1(O)C(F)(F)C(F)(F)C(F)(F)C(F)(F)F (stereo not drawn)	11.6%	0.96	11.7%	0.7	1.6	–	–	–	–	–
CCOC(=O)c1nnc(N)nc1C(F)(F)F	inactive	3.9	inactive	–	–	–	–	–	–	–
COC(=O)C1=NNc2nnnn2C1(O)C(F)(F)F (stereo not drawn)	4.1%	58.6	inactive	–	–	–	–	–	–	–
O=[N+]([O-])c1ccc(OP(=O)(O)Oc2ccc([N+](=O)[O-])cc2)cc1	inactive	1.8	inactive	–	–	–	–	–	–	–
CCOC(=O)C1=NNc2nnnn2C1(O)C(F)(F)F (stereo not drawn)	inactive	13.6	inactive	–	–	–	–	–	–	–
CCOC(=O)C1=NNc2cc(C)nn2C1(O)C(F)(F)C(F)(F)C(F)(F)C(F)(F)F (stereo not drawn)	6%	1.44	3%	–	–	100	–	–	–	–
CCOC(=O)C1=NNc2nnnn2C1(O)C(F)(F)C(F)(F)C(F)(F)C(F)(F)F (stereo not drawn)	inactive	0.83	inactive	–	–	–	–	–	–	–
CCOC(=O)C1=NNc2cc(C)nn2C1(O)C(F)(F)F (stereo not drawn)	7.3%	48.3	inactive	–	–	–	–	–	–	–
O=C(C1=NNc2nnnn2C1(O)C(F)(F)F)c1ccccc1 (stereo not drawn)	inactive	17.2	inactive	–	–	–	–	–	–	–
CCOC(=O)C1=NNc2c(C(=O)OCC)cnn2C1(O)C(F)(F)F (stereo not drawn)	8.5%	–	inactive	–	–	–	9.3	–	–	–
CCOC(=O)C1=NNc2cc(-c3ccccc3)nn2C1(O)C(F)(F)C(F)(F)F (stereo not drawn)	22%	3.91	13.6%	1.61	3.52	100	–	–	–	–
CCOC(=O)C1=NNc2cc(-c3ccccc3)nn2C1(O)C(F)(F)F (stereo not drawn)	inactive	16.4	3.8%	–	–	–	–	–	–	–
CCOC(=O)c1cnn2c1NN=C(C(=O)OC)C2(O)C(F)(F)C(F)(F)C(F)(F)F (stereo not drawn)	inactive	38.2	inactive	–	–	–	–	–	–	–
CCOC(=O)C1=NNc2cc(-c3ccccc3)nn2C1(O)C(F)(F)C(F)(F)C(F)(F)C(F)(F)F (stereo not drawn)	16.2%	0.46	inactive	0.23	0.69	100	–	Active	–	–
CCOC(=O)C1=NNc2c(C(=O)OCC)ncn2C1(O)C(F)(F)F (stereo not drawn)	inactive	34.4	inactive	–	–	–	–	–	–	–
COC(=O)C1=NNc2ncnn2C1(O)C(F)(F)C(F)(F)C(F)(F)C(F)(F)F (stereo not drawn)	inactive	10.7	inactive	6.51	23.4	–	–	–	Active	–
COC(=O)C1=NNc2nnnn2C1(O)C(F)(F)C(F)(F)C(F)(F)C(F)(F)F (stereo not drawn)	inactive	1.31	inactive	0.57	1.74	100	–	–	–	Active
